Experiments:
hrMAO-A = molecular target: T1, hrMAO-A (Homo sapiens, UniProt P21397); assay: Metabolic stability in the presence of hrMAO-A; type: in vitro ADME; settings: MAO-A; values in square brackets are within 10% difference (assay's accuracy), no deuteration effect
T1 construct: purchased XenoTech Lot #8213001
T1 sequence (P21397 1-527): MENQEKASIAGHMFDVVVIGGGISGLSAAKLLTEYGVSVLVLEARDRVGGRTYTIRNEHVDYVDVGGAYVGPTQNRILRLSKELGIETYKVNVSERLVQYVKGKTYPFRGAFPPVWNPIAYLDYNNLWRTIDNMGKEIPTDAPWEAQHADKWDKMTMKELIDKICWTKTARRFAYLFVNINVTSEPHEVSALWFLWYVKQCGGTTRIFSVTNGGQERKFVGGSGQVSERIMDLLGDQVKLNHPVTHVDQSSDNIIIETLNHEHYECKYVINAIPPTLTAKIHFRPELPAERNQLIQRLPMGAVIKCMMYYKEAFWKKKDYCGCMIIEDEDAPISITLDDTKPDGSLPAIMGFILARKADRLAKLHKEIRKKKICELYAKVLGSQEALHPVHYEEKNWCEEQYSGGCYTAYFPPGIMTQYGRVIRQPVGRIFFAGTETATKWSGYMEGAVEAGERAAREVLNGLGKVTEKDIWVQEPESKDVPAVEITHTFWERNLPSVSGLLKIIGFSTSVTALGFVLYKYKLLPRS
Experimental: The reaction mixture was prepared as described below. The co-dosed TAs were added into the reaction mixture at a final concentration of 1 microM each. The positive control, kynuramine (25 microM), was run simultaneously with the TAs in a separate reaction. The reaction mixture (without TAs or kynuramine) was equilibrated in a shaking water bath at 37° C. for 5 minutes. The reaction was initiated by the addition of the TAs or kynuramine, and the mixture was incubated in a shaking water bath at 37° C. Aliquots (100 microL) of the TA reaction mixture were withdrawn at 0, 5, 10, 20, 30, 60, and 120 minutes. Aliquots (100 microL) of the positive control reaction mixture were withdrawn at 0 and 30 minutes. TA and kynuramine samples were immediately combined with 100 microL of ice-cold 100% MeCN containing 0.1% formic acid and IS to terminate the reaction. The samples were then mixed and centrifuged to precipitate proteins. All TA samples were assayed by LC-HRAMS. The PARR (analyte to IS) at each time point was compared to the PARR at time 0 to determine the percent remaining at each time point. Reaction composition: hrMAO 0.02 mg/mL; Potassium Phosphate, pH 7.4 100 mM; Magnesium Chloride 5 mM; Test Articles (each) 1 microM.

[1] = PK study in rats, cassette dosing of deuterated and non-deuterated analog; type: in vivo; settings: rat; 5 mg/kg; oral gavage or via catheter; % change vs. non-deuterated material
Experimental: (§1) The key PK parameters (presented as a % change vs. non-deuterated materials) are presented in Table 3 to include half-life (T1/2), area under the curve (AUC), bioavailability (F) and blood-to-plasma ration (BPR). Pharmacokinetics of the deuterated tryptamines was studied in rats. In a typical experiment, run as a cassette dosing, two groups of 5 Wistar female rats (200-250 g) with surgically inserted jugular vein catheter (Charles River, Andover, MA) were fasted for 12 h and then administered 5 mg/kg of the deuterated and 5 mg/kg of the related non-deuterated analog, by oral gavage or via a catheter for each group. At time points 0, 15, 30, 60 min, and 2, 4, 8, and 24 h, the resulting plasma was analyzed for the parent molecule using LC/MS spectroscopy. Two separate groups of 5 animals were used for determining blood-to-plasma ratio (BPR). Each group was sacrificed at time points 15 and 30 min, respectively, and the concentration of the parent drug was determined in the brain and plasma by LC/MS spectroscopy.

[2] = BPR: parent drug in brain and plasma of rats; type: in vivo; settings: rat, % change vs. non-deuterated material
Experimental: as §1

rat liver microsomes = assay: Metabolic stability in rat liver microsomes (RLM)
[3] = oral, cited from earlier work

Row | Compound | MAO, % (half-life as % vs. the related nondeuterated compound) (hrMAO-A) [%] | Deuterium Kinetic Isotope Effect (% change), AUC [1] [%] | Deuterium Kinetic Isotope Effect (% change), T1/2 [1] [%] | Deuterium Kinetic Isotope Effect (% change), BPR, 15 min [2] [%] | Deuterium Kinetic Isotope Effect (% change), BPR, 30 min [2] [%] | RLM, % (half-life as % vs. the related nondeuterated compound) (rat liver microsomes; RLM, values in square brackets are within 10% difference (assay's accuracy), no deuteration effect) [%] | collective kinetic deuterium isotope effect (reaction rate decrease for deuterated vs. non-deuterated molecule) (rat liver microsomes; rat liver microsomes, 0 to 60 min, disappearance of parent peak) | very strong psychedelic doses [3] [µg] | orally active dose ([3]; doses as low as) [µg]
1 | [2H]C([2H])(Cc1c[nH]c2ccc(OC)cc12)N(C)C [5-MeO-DMT-α,α-d2] | 227 | 60 | 30 | 120 | 180 | 185 | 150-200% | – | –
2 | [2H]C([2H])(Cc1c[nH]c2cccc(O)c12)N(C)C [PI-α,α-d2] | – | 75 | 50 | 100 | 150 | – | – | – | –
3 | COc1cc(CCNCc2ccccc2OC)c(OC)cc1Cl [2C—C—NBOMe, 2-(4-Chloro-2,5-dimethoxyphenyl)-N-[(2-methoxyphenyl)methyl]ethan-1-amine] | – | – | – | – | – | – | – | 500 to 700 | ≥ 25

Reference: patent publication US12240813B2, “Deuterated tryptamine derivatives and methods of use” (priority 2020, dated 2025)
